The text below walks through data of patent US10632106B2, “Methods of cancer treatment with 2-(1′H-Indole-3′-carbonyl)-thiazole-4-carboxylic acid methyl ester” (Ariagen, Inc., priority 2009, dated 2020).

The subject of this data set is Siha (human cervical cancer) xenografts. The experiment in a line: Siha xenograft growth inhibition. It is filed as in vivo. Particulars: ITE 100-200 mg/kg i.p. once daily. How it is done:
All the procedures related to animal handling, care, and the treatment in the study were performed following guidelines of KeyGen Biotechn Co., Ltd. (Nanjing, China), a contract research organization we hired, based on the guidance of the Association for Assessment and Accreditation of Laboratory Animal Care (AAALAC). Animals were checked for any effects of tumor growth and drug treatment on normal behavior such as mobility, food and water consumption, body weight gain/loss (bodyweights were measured every two days), eye/hair matting, and any other abnormal effect. Death and observed clinical signs were recorded. Individual animals with a tumor volume exceeding 3,000 mm^3 or animals of a group with a mean tumor volume exceeding 2,000 mm^3 were euthanized. In addition, animals showing signs of severe distress and/or pain or losing the capability of accessing adequate food or water were humanely sacrificed.
Cell lines HCT116, Siha, MFC were cultured in DMEM medium (high glucose) supplemented with 10% fetal bovine serum (FBS), SW116 and T24 in RPMI-1640 medium with 10% FBS, M14 and A375 in DMEM medium (high glucose) with 10% calf serum (CS), SGC7901 and Ketr-3 in RPMI-1640 medium with 10% CS, and CFPAC-1 in IMDM medium with 10% FBS. All of the cells were cultured, in the presence of 100 U/ml penicillin and 100 μg/ml streptomycin, at 37° C. in an atmosphere of 5% CO2 in air. […] The cells growing in an exponential phase were harvested and counted for tumor inoculation. Cell lines 5180 and U14 were maintained in ascites (peritoneal cavity fluid) of mice and were harvested and counted for tumor inoculation. […]
Tumor volume was measured every two days in two dimensions using a caliper and the volume was calculated with a formula of: V=0.5 a×b^2, where a and b are the long and short diameter (in mm) of a tumor, respectively. […] The TGD was calculated as: TGD=T−C, where T was the time (in days) required for tumors in a drug treated group to reach a predetermined mean tumor volume and C the time (in days) in the control group to reach the same volume. […]

Under “TGD at Vol. 1,000”, `COC(=O)c1csc(C(=O)c2c[nH]c3ccccc23)n1` [ITE, 2-(1′H-indole-3′-carbonyl)-thiazole-4-carboxylic acid methyl ester] registered a TGD of 7 days. The “TGI (%)” value (TGI at day 24, TGI=(1−ΔT/ΔC)×100%) came to 53%. Besides, the “Weight Loss” value (end of therapy relative to beginning) is given as 19%.
